Test system: PSA, KLF9, PMEPA1 expression
Assay: Steroid-induced gene expression (PSA, KLF9, PMEPA1) by qPCR in long-term Enz-treated LAPC4 cells
Type: cell-based, human
Conditions: LAPC4 treated with Enz 36 days, steroid 24 hours
Experimental: LAPC4 cells were treated with Enz for 36 days and then seeded into 12 well plates coated with poly-DL-ornithine at 50% confluence. […] Total RNA was extracted with a GenElute Mammalian Total RNA miniprep kit (Sigma-Aldrich) and 1 μg RNA was reverse-transcribed to cDNA with the iScript cDNA Synthesis Kit (Bio-Rad). An ABI 7500 Real-Time PCR machine (Applied Biosystems) was used to perform the qPCR analysis, using iTaq Fast SYBR Green Supermix with ROX (Bio-Rad) in 96-well plates at a final reaction volume of 10 μl. The qPCR analysis was carried out in triplicate with suitable primers. Each mRNA transcript was quantitated by normalizing the sample values to RPLP0 and to vehicle treated cells (for steroid treated cells). All gene expression studies were repeated in independent experiments.

| Structure (SMILES) | KLF9 expression | PSA expression | PMEPA1 expression |
| --- | --- | --- | --- |
| C[C@]12CCC(=O)C=C1CC[C@@H]1[C@@H]2[C@@H](O)C[C@@]2(C)[C@H]1CC[C@]2(O)C(=O)CO [cortisol] | induced | cortisol induction of PSA expression | – |
| C[C@]12CCC(=O)C[C@@H]1CC[C@@H]1[C@@H]2CC[C@]2(C)[C@@H](O)CC[C@@H]12 [DHT, 5α-dihydrotestosterone] | – | – | induced with DHT only |

— patent publication US20180296531A1, “STIMULATION OF 11B-HSD2 EXPRESSION TO IMPROVE HORMONAL THERAPY OF STEROID-DEPENDENT DISEASE” (THE CLEVELAND CLINIC FOUNDATION, priority 2015, published 2018)
